Earlier results, collected in patent publication US9446050B2, “Method for treatment of mesothelioma” (THE BRIGHAM AND WOMEN'S HOSPITAL, INC., priority 2011, dated 2016).

Legend:
mesothelioma [1] = settings: large-dose single treatment in combination with leucovin
mesothelioma [2] = settings: single agent

Compound	efficacy rate (mesothelioma [1]) [%]	median overall survival (mesothelioma [2]) [months]	response rate (mesothelioma [2]) [%]
CN(Cc1cnc2nc(N)nc(N)c2n1)c1ccc(C(=O)N[C@@H](CCC(=O)O)C(=O)O)cc1 [methotrexate]	37	–	–
Nc1nc2[nH]cc(CCc3ccc(C(=O)N[C@@H](CCC(=O)O)C(=O)O)cc3)c2c(=O)[nH]1 [pemetrexed]	–	10.7	14.1
